In test [1] the test system is Human neutrophils. The experiment in a line: O2•− generation assay (SOD-inhibitable reduction of ferricytochrome c) in FMLP/CB-activated neutrophils. Format: cell-based. The conditions noted are these: Neutrophil, absorbance 550 nm, mean ± S.E.M. (n = 3). The procedure: (§1) Human neutrophils were prepared by the following procedure. […] The precipitate thus obtained was treated with a hypotonic solution, i.e., 0.2% NaCl, to lyse erythrocytes, followed by removal of the lysed erythrocytes using centrifugation at 200 g and 4° C. for 8 minutes so as to obtain the neutrophils. […] The neutrophil suspension was stored at 4° C. before use.
The O2^•− generation assay was based on the superoxide dismutase (SCD)-inhinitable reduction of ferricytochrome c. […] The neutrophils obtained in the section of “3. […] In a control group, 100% DMSO was used to substitute the compound solution. Moreover, in the positive control group, diphenyleneiodonium (DPI) was used to substitute the compound solution. The reacted mixture was added with 1.5 μl of cytochalasin B (CB, […]) and was incubated for […], followed by addition with 1.5 μl of formyl-L-methionyl-L-leucyl-L-phenylalanine (FMLP, 100 μM) and reaction for 10 minutes to activate neutrophils.

Test [2] deals with Human neutrophils. Briefly: Release of human neutrophil elastase (NE) from FMLP/CB-activated neutrophils. Format: cell-based. The conditions noted are these: substrate MeO-Suc-Ala-Ala-Pro-Val-p-nitroanilide, 405 nm, mean ± S.E.M. (n = 3). As to the method: as §1
The neutrophils obtained in the section of “3. […] In a control group, 100% DMSO was used to substitute the compound solution. […] The reacted mixture was added with 1.5 μl of cytochalasin B (CB, 0.5 mg/ml) and was incubated for 3 minutes, followed by addition with 1.5 μl of formyl-L-methionyl-L-leucyl-L-phenylalanine (FMLP, 100 μM) and reaction for 10 minutes to activate neutrophils.

Test [3] deals with lung injury caused by trauma-hemorrhagic shock. The experiment in a line: Water content assay of lung tissue after trauma-hemorrhagic shock. It counts as in vivo, rat. As to the method: (§2) Specifically, the effects of compound E7 on water content in lung tissues and myeloperoxidase (MPO) activity were measured.
(§3) In brief, male Sprague-Dawley (S.D.) rats having a body weight ranging from 275 to 325 g were obtained from National Laboratory Animal Center. The rats were randomly divided into four groups including experimental groups 1 and 2 and sham-operated groups 1 and 2. Each group included 8 rats. All rats were raised in an air-conditioned room with the following conditions: a light-dark cycle of 12-14 hours of illumination and 10-12 hours of darkness, 20-26° C., and relative humidity of 40-60%. The rats were free to have sufficient drinking water and feed and lived in the aforesaid room for one week to adapt to the environment. Before beginning the experiments, the rats were starved overnight while allowed to have sufficient drinking water ad libitum. The rats were anesthetized by isoflurane (Attane, Minrad, Bethlehem, Pa.) inhalation and were subjected to 5-cm midline laparotomy in the abdomen. […] The total amount of the blood volume of maximum bleed-out was recorded. […]
The left upper lobe was weighted and the weight was referred to as “wet weight”. The left upper lobe was then dried at 80° C. for 24 hours, and the weight, referred to as dry weight, thereof was measured. […]
The data were analyzed using the GraphPad Prism software (GraphPad Software, San Diego, Calif.). […]

Test [4] has the same test system. The experiment in a line: Myeloperoxidase (MPO) activity in lung tissue after trauma-hemorrhagic shock. It counts as in vivo, rat. The procedure:
as §2, §3
Activity of MPO was determined based on a method disclosed in H. P. Yu et al., Biochem. Pharmacol., 78: 983-992, 2009. […]

The next test has as its target T1, human NE (Homo sapiens, UniProt P08246).
T1 construct: purchased Sigma, St. Louis, Mo; USA
T1 sequence (P08246 30-267): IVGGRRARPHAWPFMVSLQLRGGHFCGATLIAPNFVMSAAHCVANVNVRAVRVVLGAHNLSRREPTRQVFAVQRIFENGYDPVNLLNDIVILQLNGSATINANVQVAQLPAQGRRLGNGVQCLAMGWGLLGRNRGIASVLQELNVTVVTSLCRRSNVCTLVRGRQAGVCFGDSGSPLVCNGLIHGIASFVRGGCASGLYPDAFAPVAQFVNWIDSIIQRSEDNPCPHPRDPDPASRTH
Briefly: Inhibition of commercially available pure neutrophil elastase. It counts as biochemical. The conditions noted are these: 0.0075 U/ml human NE (Sigma), 96-well plate, 30 minutes, 405 nm. The text has this:
In a control group, 0.1% DMSO was used to substitute the compound solution. Moreover, in the positive control group, PMSF was used to substitute the compound solution.

Test [5] deals with T2, human neutrophil elastase (Homo sapiens, UniProt P08246).
T2 construct: endogenous in cells; cell-free supernatant used
T2 sequence (P08246 30-267): T1 sequence (P08246 30-267)
The experiment in a line: Inhibition of NE activity in supernatant of activated neutrophils. It counts as biochemical. As to conditions: supernatant of FMLP/CB-activated human neutrophils containing NE; mean ± S.E.M. (n = 3). The text has this: The neutrophils obtained in the section of “3. […] In a control group, 100% DMSO was used to substitute the compound solution. Moreover, in the positive control group, PMSF was used to substitute the compound solution.

Where [6] appears, read: sham-operated rats, E7 (group 2) vs vehicle (group 1).

Some results are limits rather than exact numbers.

A word on the IC50: it is the concentration that gives 50% inhibition. Read a high IC50 as lower potency.

Consider `O=c1oc(-c2ccccc2F)nc2c(Cl)cccc12` [CE1, 8-chloro-2-(2′-fluorophenyl)-4H-benzo[d][1,3]oxazin-4-one], for which the figures for the IC50 in the test with Human neutrophils [1] and in the test with Human neutrophils [2] (Neutrophil) were above 25 µM and 6.03 ± 0.65 µM, respectively.
With `O=c1oc(-c2ccccc2Cl)nc2c(Cl)cccc12` [CE2, 8-chloro-2-(2′-chlorophenyl)-4H-benzo[d][1,3]oxazin-4-one], the figures for the IC50 with Human neutrophils [1] and in the test with Human neutrophils [2] (Neutrophil) were 8.66 ± 1.44 µM and 1.89 ± 1.1 µM, respectively.
For `O=c1oc(-c2ccccc2Br)nc2c(Cl)cccc12` [CE3, 8-chloro-2-(2′-bromophenyl)-4H-benzo[d][1,3]oxazin-4-one] the same measures were 6.56 ± 3.09 µM and 1.69 ± 0.3 µM.
The matching figures for `Cc1ccccc1-c1nc2c(Cl)cccc2c(=O)o1` [CE4, 8-chloro-2-(2′-methylphenyl)-4H-benzo[d][1,3]oxazin-4-one]: 17.5 ± 2.69 µM and above 25 µM.
As for `COc1ccccc1-c1nc2c(Cl)cccc2c(=O)o1` [CE5, 8-chloro-2-(2′-methoxylphenyl)-4H-benzo[d][1,3]oxazin-4-one], the IC50 in the test with Human neutrophils [1] was 10 ± 0.59 µM; in the test on Human neutrophils [2] (Neutrophil), 1.91 ± 0.14 µM.
Take `O=c1oc(-c2ccccc2Br)nc2cccc(Cl)c12` [Compound E7, 5-chloro-2-(2′-bromophenyl)-4H-benzo[d][1,3]oxazin-4-one]: the “water content in lung tissue (wet weight/dry weight)” value in test [3] (setting [6]) is “no significant difference”; in test [3] (trauma-hemorrhage rats, E7 (experimental group 2) vs vehicle (experimental group 1), 24 hours after resuscitation, p<0.001), “significantly reduced”. In addition, the “MPO activity in lung tissue” value in test [4] (setting [6]) is recorded as “no significant difference”; in test [4] (trauma-hemorrhage rats, E7 (experimental group 2) vs vehicle (experimental group 1), 24 hours after resuscitation, p<0.01), “significantly reduced”.
In the test on Human neutrophils [1], `c1ccc2c(c1)[I+]c1ccccc1-2` [DPI, diphenyleneiodonium] displayed an IC50 of 0.97 ± 0.395 µM.
For `CC(C)C[C@H](NC(=O)N[C@H](C(=O)N[C@@H](CCC(N)=O)C(=O)N[C@@H](C)C=O)[C@@H]1CCNC(=N)N1)C(=O)O` [Elastatinal, elastatinal], the IC50 in the test on Human neutrophils [2] (Neutrophil) is 56.5 ± 9.13 µM.
With `O=S(=O)(F)Cc1ccccc1` [PMSF, phenylmethylsulfonyl fluoride], the IC50 against human NE is 52.2 ± 1.07 µM; in test [5], 95.2 ± 19.2 µM; in the test on Human neutrophils [2], 110 ± 25 µM.

These data come from patent US20110319611A1, “BENZOXAZINONE COMPOUND, METHOD FOR PRODUCING THE SAME, AND PHARMACEUTICAL COMPOSITION CONTAINING THE SAME” (Chang Gung University, priority 2010, published 2011).
